In paper PMC9551036, “A selective and orally bioavailable VHL-recruiting PROTAC achieves SMARCA2 degradation in vivo” (Nature Communications, 2022):
“And” between values parts separate entries of the source, which are not always exact repeats. Equal values may be shown once. Read-outs that look alike come from different tables or passages of the source.

Target: SMARCA2 (Homo sapiens, UniProt P51531)
Experiment: SMARCA2 capillary electrophoresis protein assay in other cell lines (A549, NCI-H1568, HCT116, LU99, HCC-364, HCT-15, HCC4006, SK-N-AS)
Format: cell-based
Design: endogenous in cells; host or cells: RKO, NCI-H1568, A549, HCT116, LU99, HCC-364, HCT-15, HCC4006, SK-N-AS
Details: for LogEC50: log10 of concentration in mol/l
Protocol: 130,000–200,000 cells were seeded in 24-well plates and incubated until settled down or overnight. Compounds were dissolved in DMSO and added to cells in indicated concentrations using a digital dispenser following an optional media change. Cells were incubated for 4 or 18 h as indicated. For SMARCA2/4 half-life determination, 150,000 or 200,000 cells were seeded in 24-well plates. The next day, 50 µg/ml cycloheximide (Sigma) was added and cells were incubated for 1–24 h. For SMARCA2/4 re-synthesis measurements, 200,000 cells were seeded in 24-well plates. The next day, 100 nM compound 6 was added for 4 h to degrade SMARCA2/4, and a sample was taken as baseline for normalisation. To allow re-synthesis, a VHL binder (compound 32, 25 or 50 µM) was then added for 3 or 24 h. Medium was removed, cells were washed with PBS and lysed with 80 µl Lysis Buffer (MSD Tris Lysis Buffer (#R60TX-2) + Halt Inhibitor Cocktail (100x) + Benzonase 0.5 µL/ml). Samples were frozen at −80 °C and thawed at room temperature before use. Samples were transferred to a V-bottom plate and insoluble debris was pelleted by centrifugation for 5 min at maximum speed. The supernatant was transferred to a fresh plate. Master Mix and Ladder were prepared according to manufacturer’s instructions for 12–230 kDa Wes Separation Module, 8 × 25 capillary cartridges, Protein Simple #SM-W004 with Anti-Rabbit Detection Module for Wes, Peggy Sue or Sally Sue, Protein Simple #DM-001. 4.8 µl lysate were mixed with 1.2 µl Master Mix to achieve a protein concentration of ~0.5 µg/µl. Antibodies were diluted in Antibody Diluent II (SMARCA2 Sigma #HPA029981 RRID:AB_10602406 1:25–100, SMARCA4 Cell Signalling #49360 clone D1Q7F RRID:AB_2728743 1:15–120 or Abcam #ab110641 clone EPNCIR111A RRID:AB_10861578 1:60, GAPDH Abcam #ab9485 RRID:AB_307275 1:250). Wes plates were prepared and run according to manufacturer’s instructions. Proteins were quantified with accompanying Compass Software. SMARCA2/4 protein levels were normalised to GAPDH. […] Where applicable, curves were fitted using a 4-parametric logistic model.

[1] = HCC4006_SM2, four-parameter fit
[2] = HCC-364_SM2, four-parameter fit

Sequence of SMARCA2 (P51531 whole entry): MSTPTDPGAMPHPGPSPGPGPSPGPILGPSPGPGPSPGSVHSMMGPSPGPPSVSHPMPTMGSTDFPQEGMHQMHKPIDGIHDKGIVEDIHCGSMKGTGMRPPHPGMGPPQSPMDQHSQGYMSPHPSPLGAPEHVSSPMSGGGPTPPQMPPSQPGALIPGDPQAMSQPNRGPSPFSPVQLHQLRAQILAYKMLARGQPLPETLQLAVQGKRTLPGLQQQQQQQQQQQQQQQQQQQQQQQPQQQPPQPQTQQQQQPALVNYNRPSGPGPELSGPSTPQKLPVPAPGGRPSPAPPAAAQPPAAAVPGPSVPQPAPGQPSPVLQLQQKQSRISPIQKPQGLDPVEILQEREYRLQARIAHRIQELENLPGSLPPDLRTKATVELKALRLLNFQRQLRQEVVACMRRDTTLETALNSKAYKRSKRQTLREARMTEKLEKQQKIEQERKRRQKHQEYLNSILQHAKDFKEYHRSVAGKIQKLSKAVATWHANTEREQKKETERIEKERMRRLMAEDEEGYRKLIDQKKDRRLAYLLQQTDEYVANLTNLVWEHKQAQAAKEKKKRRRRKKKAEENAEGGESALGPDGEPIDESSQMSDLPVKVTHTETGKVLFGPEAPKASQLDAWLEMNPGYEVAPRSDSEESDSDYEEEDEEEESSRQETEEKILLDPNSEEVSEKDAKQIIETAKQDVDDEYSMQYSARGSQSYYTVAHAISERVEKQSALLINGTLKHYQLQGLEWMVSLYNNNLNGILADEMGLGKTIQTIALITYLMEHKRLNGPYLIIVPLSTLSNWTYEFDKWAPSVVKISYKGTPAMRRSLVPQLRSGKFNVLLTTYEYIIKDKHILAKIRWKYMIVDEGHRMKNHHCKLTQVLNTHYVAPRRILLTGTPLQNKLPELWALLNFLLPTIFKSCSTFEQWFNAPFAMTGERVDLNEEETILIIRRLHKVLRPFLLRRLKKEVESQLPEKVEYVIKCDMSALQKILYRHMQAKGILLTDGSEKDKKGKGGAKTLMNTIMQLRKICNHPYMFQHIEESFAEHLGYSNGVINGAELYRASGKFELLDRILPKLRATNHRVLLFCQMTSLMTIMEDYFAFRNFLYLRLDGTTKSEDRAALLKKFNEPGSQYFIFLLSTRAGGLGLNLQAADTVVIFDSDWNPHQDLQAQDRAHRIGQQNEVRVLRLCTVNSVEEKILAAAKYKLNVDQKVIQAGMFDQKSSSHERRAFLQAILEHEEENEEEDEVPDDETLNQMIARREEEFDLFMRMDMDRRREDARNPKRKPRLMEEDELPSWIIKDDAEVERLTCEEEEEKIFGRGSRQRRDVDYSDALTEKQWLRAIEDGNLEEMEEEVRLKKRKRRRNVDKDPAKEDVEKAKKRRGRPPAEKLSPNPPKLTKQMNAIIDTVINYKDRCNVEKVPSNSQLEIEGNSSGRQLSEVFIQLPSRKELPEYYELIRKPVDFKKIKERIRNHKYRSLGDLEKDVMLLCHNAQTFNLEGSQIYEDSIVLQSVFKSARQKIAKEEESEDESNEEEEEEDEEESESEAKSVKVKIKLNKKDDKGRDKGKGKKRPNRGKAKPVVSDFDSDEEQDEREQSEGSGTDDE

Cc1ncsc1-c1ccc(C(CCC(C)CCN2CCC(c3ccc4c(c3)n(C3CCCC3)c3nc(=O)c5c(Br)cccc5n43)CC2)NC(=O)C2CC(O)CN2C(=O)C(NC(=O)C2(F)CC2)C(C)(C)C)cc1 (centres unmarked) [ACBI2]
Bottom (% protein remaining, four-parameter fit) (A549, 4h): 4.929% | HillSlope (protein remaining) (A549, 4h): -1.225 | LogEC50 (protein remaining) (A549, 4h): -8.097 log10(mol/l) | Top (% protein remaining, four-parameter fit) (A549, 4h): 100.9% | % protein remaining (A549, 4h, conc 1.00001e-10 mol/l): 84.5708% and 85.2048% | % protein remaining (A549, 4h, conc 1.52416e-10 mol/l): 108.644% | % protein remaining (A549, 4h, conc 3.1623e-10 mol/l): 89.402% and 93.1131% | % protein remaining (A549, 4h, conc 4.57247e-10 mol/l): 121.415% | % protein remaining (A549, 4h, conc 1.00001e-9 mol/l): 110.304% and 110.867% | % protein remaining (A549, 4h, conc 1.37174e-9 mol/l): 89.7364% | % protein remaining (A549, 4h, conc 3.1623e-9 mol/l): 63.5379% and 69.9208% | % protein remaining (A549, 4h, conc 4.11523e-9 mol/l): 69.7779% | % protein remaining (A549, 4h, conc 1.00001e-8 mol/l): 46.41% and 40.9559% | % protein remaining (A549, 4h, conc 1.23457e-8 mol/l): 53.3153% | % protein remaining (A549, 4h, conc 3.1623e-8 mol/l): 21.5929% and 21.3671% | % protein remaining (A549, 4h, conc 3.7037e-8 mol/l): 16.6414% | % protein remaining (A549, 4h, conc 1.00001e-7 mol/l): 9.055% and 9.573% | % protein remaining (A549, 4h, conc 1.11111e-7 mol/l): 6.719% | % protein remaining (A549, 4h, conc 3.1623e-7 mol/l): 3.884% and 5.2896% | % protein remaining (A549, 4h, conc 3.33333e-7 mol/l): 5.288% | % protein remaining (A549, 4h, conc 1e-6 mol/l): 9.764% | % protein remaining (A549, 4h, conc 1.00001e-6 mol/l): 2.893% and 6.667% | % protein remaining (A549, 4h, conc 3.1623e-6 mol/l): 2.881% and 4.488% | DC50 (A549, 4h, read-out: EC50 (protein remaining)): 8 nM | Bottom (% protein remaining, four-parameter fit) (A549, 8h): 4.658% | HillSlope (protein remaining) (A549, 8h): -1.748 | LogEC50 (protein remaining) (A549, 8h): -8.366 log10(mol/l) | Top (% protein remaining, four-parameter fit) (A549, 8h): 107% | % protein remaining (A549, 8h, conc 1.52416e-10 mol/l): 110.756% and 87.6939% | % protein remaining (A549, 8h, conc 4.57247e-10 mol/l): 98.1008% and 121.894% | % protein remaining (A549, 8h, conc 1.37174e-9 mol/l): 100.189% and 99.1847% | % protein remaining (A549, 8h, conc 3.7037e-8 mol/l): 13.1114% and 6.497% | % protein remaining (A549, 8h, conc 1.11111e-7 mol/l): 4.666% and 4.638% | % protein remaining (A549, 8h, conc 3.33333e-7 mol/l): 3.034% and 3.636% | % protein remaining (A549, 8h, conc 1e-6 mol/l): 2.595% and 3.383% | % protein remaining (A549, 8h, conc 3e-6 mol/l): 3.585% and 2.581% | DC50 (A549, 8h, read-out: EC50 (protein remaining)): 4.31 nM | Bottom (% protein remaining, four-parameter fit) (A549, 18h): 5.224% | HillSlope (protein remaining) (A549, 18h): -3.553 | LogEC50 (protein remaining) (A549, 18h): -8.518 log10(mol/l) | Top (% protein remaining, four-parameter fit) (A549, 18h): 104.8% | % protein remaining (A549, 18h, conc 1.52416e-10 mol/l): 87.6939% | % protein remaining (A549, 18h, conc 4.57247e-10 mol/l): 121.894% | % protein remaining (A549, 18h, conc 1.37174e-9 mol/l): 99.1847% | % protein remaining (A549, 18h, conc 4.11523e-9 mol/l): 30.1189% | % protein remaining (A549, 18h, conc 1.23457e-8 mol/l): 11.5462% | % protein remaining (A549, 18h, conc 3.7037e-8 mol/l): 6.497% | % protein remaining (A549, 18h, conc 1.11111e-7 mol/l): 4.638% | % protein remaining (A549, 18h, conc 3.33333e-7 mol/l): 3.636% | % protein remaining (A549, 18h, conc 1e-6 mol/l): 3.383% | % protein remaining (A549, 18h, conc 3e-6 mol/l): 2.581% | DC50 (A549, 18h, read-out: EC50 (protein remaining)): 3.03 nM | SMARCA2 degradation in sensitive cell lines (A549 and NCI-H1568): rapid and complete degradation of SMARCA2 | Bottom (best-fit value, % protein remaining) [1]: 15.27% | HillSlope [1]: -1.75 | LogEC50 (HCC4006_SM2): -7.779 | DC50 (HCC4006_SM2, protein degradation, four-parameter fit, read-out: EC50 (the source's name)): 16.6 nM | Bottom (best-fit value, % protein remaining) [2]: 10.4% | HillSlope [2]: -2.48 | LogEC50 (HCC-364_SM2): -8.138 | DC50 (HCC-364_SM2, protein degradation, four-parameter fit, read-out: EC50 (the source's name)): 7.28 nM | Bottom (% protein remaining, four-parameter fit) (HCT116, SM2): 21.77% | HillSlope (protein remaining) (HCT116, SM2): -1.136 | Top (% protein remaining, four-parameter fit) (HCT116, SM2): 121.9% | Bottom (best-fit value, % protein remaining) (HCT-15_SM2, four-parameter fit): -16.7% | HillSlope (HCT-15_SM2, four-parameter fit): -0.6998 | LogEC50 (HCT-15_SM2): -6.787 | DC50 (HCT-15_SM2, protein degradation, four-parameter fit, read-out: EC50 (the source's name)): 163 nM | Bottom (best-fit value, % protein remaining) (LU99_SM2, four-parameter fit): 4.814% | HillSlope (LU99_SM2, four-parameter fit): -1.159 | LogEC50 (LU99_SM2): -8.209
